Measurements: the NIST ThermoML archive (doi:10.1021/je700266n)
Numbers after ± are expanded uncertainties.

Key:
[1] = 101 kPa, Liquid
[2] = xn = mol fraction of the nth substance listed; settings: 101 kPa, Liquid

c1ccccc1 [benzene]
[1]
Settings | mass density [kg/m3]
293.15 K | 878.23 ± 0.48
298.15 K | 873.11 ± 0.49
303.15 K | 867.59 ± 0.5
308.15 K | 862.21 ± 0.52
313.15 K | 856.82 ± 0.53
323.15 K | 846.05 ± 0.55
333.15 K | 835.76 ± 0.58
343.15 K | 824.89 ± 0.6

CCCCn1cc[n+](C)c1.F[P-](F)(F)(F)(F)F [1-butyl-3-methylimidazolium hexafluorophosphate] + c1ccccc1
mass density [kg/m3], [2]
Settings | 293.15 K | 298.15 K | 303.15 K | 308.15 K | 313.15 K | 323.15 K | 333.15 K | 343.15 K
x1 = 0.34 | 1166.34 ± 0.76 | 1161.8 ± 0.75 | 1157.16 ± 0.74 | 1152.56 ± 0.72 | 1148.35 ± 0.71 | 1139.5 ± 0.69 | 1129.94 ± 0.67 | 1120.87 ± 0.64
x1 = 0.3995 | 1197.59 ± 0.89 | 1193.15 ± 0.88 | 1188.62 ± 0.87 | 1184.16 ± 0.86 | 1180.04 ± 0.85 | 1171.45 ± 0.82 | 1162.13 ± 0.8 | 1153.45 ± 0.77
x1 = 0.4999 | 1239.2 ± 1.1 | 1234.86 ± 1.1 | 1230.38 ± 1.1 | 1226.01 ± 1.1 | 1222.02 ± 1.1 | 1213.65 ± 1 | 1204.95 ± 1 | 1196.96 ± 1
x1 = 0.5999 | 1274.25 ± 1.4 | 1269.99 ± 1.4 | 1265.61 ± 1.3 | 1261.3 ± 1.3 | 1257.39 ± 1.3 | 1249.14 ± 1.3 | 1240.67 ± 1.2 | 1233.13 ± 1.2
x1 = 0.7 | 1304.29 ± 1.6 | 1299.95 ± 1.6 | 1295.6 ± 1.6 | 1291.34 ± 1.6 | 1287.35 ± 1.6 | 1279.03 ± 1.5 | 1270.76 ± 1.5 | 1263.66 ± 1.5
x1 = 0.8003 | 1329.79 ± 1.9 | 1325.97 ± 1.9 | 1321.58 ± 1.9 | 1317.28 ± 1.9 | 1313.09 ± 1.9 | 1304.76 ± 1.8 | 1296.68 ± 1.8 | 1289.79 ± 1.8
x1 = 0.9001 | 1351.51 ± 2.2 | 1347.29 ± 2.2 | 1342.85 ± 2.2 | 1338.55 ± 2.2 | 1334.45 ± 2.2 | 1326.2 ± 2.1 | 1317.85 ± 2.1 | 1310.77 ± 2.1
x1 = 1 | 1371.57 ± 2.6 | 1367.22 ± 2.6 | 1362.86 ± 2.5 | 1358.56 ± 2.5 | 1354.3 ± 2.5 | 1345.98 ± 2.5 | 1337.7 ± 2.4 | 1330.76 ± 2.4
